Laboratory results reported in ChEMBL document CHEMBL1201862, “PubChem BioAssay data set” (2004).
The source made the active and inactive calls.

Columns and labels:
[1] = Counterscreen for IDE inhibitors: Luminescence-based cell-based high throughput dose response assay to identify compounds that are cytotoxic to HEK cells. [Related pubchem assays: 434962 (Primary screen (IDE inhibitors in singlicate)), 449730 (Counterscreen (Cytotoxicity in triplicate)), 435028 (Confirmation (IDE inhibitors in triplicate)) …; format: functional; conditions: HEK293
Insulin-degrading enzyme = molecular target: T1, Insulin-degrading enzyme (Homo sapiens, UniProt P14735); test: Dose Response: Fluorescence polarization-based cell-based high throughput dose response assay for inhibitors of insulin-degrading enzyme (IDE). [Related pubchem assays: 434962 (Primary screen (IDE inhibitors in singlicate)), 449730 (Counterscreen (Cytotoxicity in triplicate)), 435028 (Confirmation (IDE inhibitors in triplicate)), 434984 (Summary …; format: functional
T1 sequence (P14735 whole entry): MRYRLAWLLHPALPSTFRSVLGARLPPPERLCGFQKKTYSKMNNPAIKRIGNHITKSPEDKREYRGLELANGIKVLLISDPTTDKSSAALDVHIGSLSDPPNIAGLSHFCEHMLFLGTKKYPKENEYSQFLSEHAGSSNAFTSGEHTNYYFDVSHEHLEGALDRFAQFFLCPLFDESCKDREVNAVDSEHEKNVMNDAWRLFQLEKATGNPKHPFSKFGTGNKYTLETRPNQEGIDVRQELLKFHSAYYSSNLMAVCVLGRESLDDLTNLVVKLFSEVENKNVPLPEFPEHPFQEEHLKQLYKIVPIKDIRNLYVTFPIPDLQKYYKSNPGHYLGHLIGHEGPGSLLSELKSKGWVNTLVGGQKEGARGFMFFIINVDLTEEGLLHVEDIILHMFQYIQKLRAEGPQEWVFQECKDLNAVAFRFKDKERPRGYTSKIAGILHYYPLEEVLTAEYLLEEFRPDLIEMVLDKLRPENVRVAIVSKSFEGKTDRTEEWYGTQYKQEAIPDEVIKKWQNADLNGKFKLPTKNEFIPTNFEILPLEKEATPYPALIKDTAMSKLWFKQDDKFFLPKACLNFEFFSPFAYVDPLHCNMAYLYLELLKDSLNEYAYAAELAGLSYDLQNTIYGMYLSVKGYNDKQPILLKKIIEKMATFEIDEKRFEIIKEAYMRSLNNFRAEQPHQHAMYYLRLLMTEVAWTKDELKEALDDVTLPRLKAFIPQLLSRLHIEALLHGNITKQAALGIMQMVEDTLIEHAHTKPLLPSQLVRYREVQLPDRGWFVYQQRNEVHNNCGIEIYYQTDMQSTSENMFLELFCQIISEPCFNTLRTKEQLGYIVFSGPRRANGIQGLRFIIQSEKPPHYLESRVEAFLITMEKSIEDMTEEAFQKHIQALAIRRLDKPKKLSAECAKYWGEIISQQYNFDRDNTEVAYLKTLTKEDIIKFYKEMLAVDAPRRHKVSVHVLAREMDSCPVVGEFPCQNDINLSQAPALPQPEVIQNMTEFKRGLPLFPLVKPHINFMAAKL

[2] = antiviral protection against BTV-induced cell death – arbovirus, BSR cells, confirmation (AID 1250); format: functional;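 further: protection from viral cytopathic effect measured as cell viability by ATP luminescence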
H9c2 = test: cells; format: functional, cell-based; conditions: Rattus norvegicus, H9c2, Myocardium
[3] = molecular target: T2, Heat shock 70 kDa protein 1A (Homo sapiens, UniProt P0DMV8); test: small-molecule inhibition of Hsp70 – biochemical, TR-FRET (AID 786)
[4] = molecular target: T2, Heat shock 70 kDa protein 1A; test: small molecules displacing fluorescent ligand from Hsp70 – biochemical, fluorescence polarization, primary screen (AID 583)
Vasopressin V1a receptor = Vasopressin V1a receptor (Homo sapiens, UniProt P37288); test: Counterscreen for Oxytocin Receptor (OXTR) agonists: Fluorescence-based cell-based high throughput dose response assay to identify agonists of the vasopressin 1 receptor (V1R). [Related pubchem assays: 2435 (Primary screen (OXTR agonists in singlicate)), 434991 (Counterscreen (V1R agonists in triplicate)), 2482 (Summary (OXTR agonists)) …; format: functional
Oxytocin receptor = Oxytocin receptor (Homo sapiens, UniProt P30559); test: Fluorescence-based cell-based high throughput dose response assay for agonists of the Oxytocin Receptor (OXTR). [Related pubchem assays: 2435 (Primary screen (OXTR agonists in singlicate)), 434991 (Counterscreen (V1R agonists in triplicate)), 2482 (Summary (OXTR agonists)), 434963 (Confirmation screen (OXTR agonists in triplicate))]; format: functional
Vero = test: cells; format: functional; conditions: Chlorocebus sabaeus
[5] = molecular target: Mothers against decapentaplegic homolog 3 (Homo sapiens, UniProt P84022); test: blockers of Smad3 complex formation in lysate – cell lysate, secondary confirmation, chemiluminescent ELISA, HEK293 lysate, dose response (AID 1058); format: functional
Mothers against decapentaplegic homolog 3, sequence (P84022 whole entry): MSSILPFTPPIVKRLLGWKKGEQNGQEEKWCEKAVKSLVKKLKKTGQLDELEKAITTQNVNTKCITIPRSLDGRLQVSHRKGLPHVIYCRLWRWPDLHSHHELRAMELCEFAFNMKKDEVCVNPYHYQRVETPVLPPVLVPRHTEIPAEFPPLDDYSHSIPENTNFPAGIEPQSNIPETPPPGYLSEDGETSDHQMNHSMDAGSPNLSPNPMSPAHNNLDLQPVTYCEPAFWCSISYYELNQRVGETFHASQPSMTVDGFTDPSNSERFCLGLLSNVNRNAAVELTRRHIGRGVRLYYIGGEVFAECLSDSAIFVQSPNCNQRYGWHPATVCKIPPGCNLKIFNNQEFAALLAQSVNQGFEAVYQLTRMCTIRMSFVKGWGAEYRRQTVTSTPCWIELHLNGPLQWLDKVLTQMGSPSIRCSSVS

T2 sequence (P0DMV8 whole entry): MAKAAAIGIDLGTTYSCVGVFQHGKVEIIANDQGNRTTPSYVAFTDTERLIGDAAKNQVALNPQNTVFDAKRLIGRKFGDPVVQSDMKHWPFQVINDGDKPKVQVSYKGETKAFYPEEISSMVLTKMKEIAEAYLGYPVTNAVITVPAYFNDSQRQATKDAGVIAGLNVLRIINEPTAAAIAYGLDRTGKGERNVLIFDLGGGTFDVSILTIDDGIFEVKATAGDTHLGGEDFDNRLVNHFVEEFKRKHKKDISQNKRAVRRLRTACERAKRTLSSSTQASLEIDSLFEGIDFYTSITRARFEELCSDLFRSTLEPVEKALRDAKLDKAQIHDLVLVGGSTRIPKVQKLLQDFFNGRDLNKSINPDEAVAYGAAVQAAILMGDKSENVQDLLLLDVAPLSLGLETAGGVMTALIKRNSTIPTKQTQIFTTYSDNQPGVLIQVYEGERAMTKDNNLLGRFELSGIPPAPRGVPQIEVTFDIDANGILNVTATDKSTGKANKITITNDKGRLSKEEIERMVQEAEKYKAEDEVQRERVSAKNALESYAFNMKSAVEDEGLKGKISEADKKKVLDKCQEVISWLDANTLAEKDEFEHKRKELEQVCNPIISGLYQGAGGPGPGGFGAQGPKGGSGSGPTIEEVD
Oxytocin receptor, sequence (P30559 whole entry): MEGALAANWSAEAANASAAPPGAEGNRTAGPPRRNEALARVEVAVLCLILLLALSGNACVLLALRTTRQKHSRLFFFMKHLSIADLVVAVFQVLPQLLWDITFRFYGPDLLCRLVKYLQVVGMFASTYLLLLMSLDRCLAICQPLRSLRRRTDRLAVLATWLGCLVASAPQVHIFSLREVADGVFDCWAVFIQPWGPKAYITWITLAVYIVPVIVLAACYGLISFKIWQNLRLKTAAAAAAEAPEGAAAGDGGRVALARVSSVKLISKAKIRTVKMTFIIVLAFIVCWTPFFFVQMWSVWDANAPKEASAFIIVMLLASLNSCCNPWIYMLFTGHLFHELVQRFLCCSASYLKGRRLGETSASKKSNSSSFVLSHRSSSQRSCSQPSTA
Vasopressin V1a receptor, sequence (P37288 whole entry): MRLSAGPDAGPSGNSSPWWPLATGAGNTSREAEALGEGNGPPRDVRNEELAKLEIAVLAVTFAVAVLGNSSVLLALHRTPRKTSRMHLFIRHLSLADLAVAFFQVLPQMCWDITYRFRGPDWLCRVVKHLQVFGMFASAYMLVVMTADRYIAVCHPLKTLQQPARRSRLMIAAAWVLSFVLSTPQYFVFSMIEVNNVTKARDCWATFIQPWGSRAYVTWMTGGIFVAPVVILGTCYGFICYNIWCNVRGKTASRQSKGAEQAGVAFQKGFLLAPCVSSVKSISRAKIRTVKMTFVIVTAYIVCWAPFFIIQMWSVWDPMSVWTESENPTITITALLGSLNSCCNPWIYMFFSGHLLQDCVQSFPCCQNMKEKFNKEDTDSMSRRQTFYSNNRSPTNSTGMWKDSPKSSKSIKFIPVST

## Cc1c(NC(=O)/C(C#N)=C/c2ccc(-c3ccc(Cl)cc3)o2)c(=O)n(-c2ccccc2)n1C
[1]
  IC50: 11.1 µM (not active)
Insulin-degrading enzyme
  IC50: 2.7 µM (active)

## COc1ccc(-c2nc(NC(=O)c3ccc(OCC(=O)N4CCOCC4)c(OC)c3)sc2C)cc1
[2]
  IC50: 83.5 µM (active)
H9c2
  IC50: > 79 µM (inactive)

## CC(C)(C)n1nnnc1C(c1ccc2ncccc2c1)N1CCSCC1 (stereo not given)
[3]
  IC50: > 100 µM (not active)
[4]
  IC50: > 100 µM (not active)

## Cc1ccc(NS(=O)(=O)c2ccc(C(=O)NCC(c3ccco3)N3CCCCC3)cc2)cc1 (stereo not given)
Vasopressin V1a receptor
  EC50: > 29.9 µM (not active)
Oxytocin receptor
  EC50: > 29.9 µM (not active)
Vero
  CC50: > 25 µM (active)

## CN(C)c1ccc(C(c2cc3c(cc2O)OCO3)N2CCOCC2)cc1 (stereo not given)
[5]
  IC50: > 40 µM (not active)
